Experimental data reported in the kinase profiling compilation of Christmann-Franck et al. (2016).

Columns and labels:
Conditions in all cases: compound 10.0 µM
[1] = biological target: NEK3 (human) (UniProt P51956)
[2] = biological target: FGFR3 (human) (UniProt P22607)
[3] = biological target: PIM1 (human) (UniProt P11309)
[4] = biological target: DYRK4 (human) (UniProt Q9NR20)
[5] = biological target: CAMK1D (human) (UniProt Q8IU85)
[6] = biological target: NEK9 (human) (UniProt Q8TD19)
[7] = biological target: STK10 (human) (UniProt O94804)
[8] = biological target: PRKACG (human) (UniProt P22612)
[9] = biological target: ROCK1 (human) (UniProt Q13464)
[10] = biological target: CAMK1 (human) (UniProt Q14012)
[11] = biological target: DAPK3 (human) (UniProt O43293)
[12] = biological target: RPS6KA3 KD1 KD2 (human) (UniProt P51812)
[13] = biological target: FES (human) (UniProt P07332)
[14] = biological target: PNCK (human) (UniProt Q6P2M8)
[15] = biological target: RIPK2 (human) (UniProt O43353)
[16] = biological target: IRAK1 (human) (UniProt P51617)
[17] = biological target: RPS6KA6 KD1 KD2 (human) (UniProt Q9UK32)
[18] = biological target: EPHA1 (human) (UniProt P21709)
[19] = biological target: PAK2 (human) (UniProt Q13177)
[20] = biological target: PRKD2 (human) (UniProt Q9BZL6)
[21] = biological target: MAPK10 (human) (UniProt P53779)
[22] = biological target: ULK2 (human) (UniProt Q8IYT8)
[23] = biological target: TAOK1 (human) (UniProt Q7L7X3)
[24] = biological target: LCK (human) (UniProt P06239)
[25] = biological target: PRKCE (human) (UniProt Q02156)
[26] = biological target: PRKG2 (human) (UniProt Q13237)
[27] = biological target: CDK3 CCNE1 (human) (UniProt P24864+Q00526)
[28] = biological target: CDK2 CCNA2 (human) (UniProt P24941+P20248)
[29] = biological target: DYRK2 (human) (UniProt Q92630)
[30] = biological target: MYLK (human) (UniProt Q15746)
[31] = biological target: STK11 (human) (UniProt Q15831)
[32] = biological target: EGFR (human) (UniProt P00533)
[33] = biological target: EPHA6 (human) (UniProt Q9UF33)
[34] = biological target: SGK3 (human) (UniProt Q96BR1)
[35] = biological target: PRKCG (human) (UniProt P05129)
[36] = biological target: ULK3 (human) (UniProt Q6PHR2)
[37] = biological target: TAOK2 (human) (UniProt Q9UL54)
[38] = biological target: EPHA3 (human) (UniProt P29320)
[39] = biological target: PASK (human) (UniProt Q96RG2)
[40] = biological target: PDGFRB (human) (UniProt P09619)
[41] = biological target: STK38 (human) (UniProt Q15208)
[42] = biological target: CHEK1 (human) (UniProt O14757)
[43] = biological target: ROCK2 (human) (UniProt O75116)
[44] = biological target: MLTK (human) (UniProt Q9NYL2)

Sequence of PASK (human) (Q96RG2 whole entry, looked up): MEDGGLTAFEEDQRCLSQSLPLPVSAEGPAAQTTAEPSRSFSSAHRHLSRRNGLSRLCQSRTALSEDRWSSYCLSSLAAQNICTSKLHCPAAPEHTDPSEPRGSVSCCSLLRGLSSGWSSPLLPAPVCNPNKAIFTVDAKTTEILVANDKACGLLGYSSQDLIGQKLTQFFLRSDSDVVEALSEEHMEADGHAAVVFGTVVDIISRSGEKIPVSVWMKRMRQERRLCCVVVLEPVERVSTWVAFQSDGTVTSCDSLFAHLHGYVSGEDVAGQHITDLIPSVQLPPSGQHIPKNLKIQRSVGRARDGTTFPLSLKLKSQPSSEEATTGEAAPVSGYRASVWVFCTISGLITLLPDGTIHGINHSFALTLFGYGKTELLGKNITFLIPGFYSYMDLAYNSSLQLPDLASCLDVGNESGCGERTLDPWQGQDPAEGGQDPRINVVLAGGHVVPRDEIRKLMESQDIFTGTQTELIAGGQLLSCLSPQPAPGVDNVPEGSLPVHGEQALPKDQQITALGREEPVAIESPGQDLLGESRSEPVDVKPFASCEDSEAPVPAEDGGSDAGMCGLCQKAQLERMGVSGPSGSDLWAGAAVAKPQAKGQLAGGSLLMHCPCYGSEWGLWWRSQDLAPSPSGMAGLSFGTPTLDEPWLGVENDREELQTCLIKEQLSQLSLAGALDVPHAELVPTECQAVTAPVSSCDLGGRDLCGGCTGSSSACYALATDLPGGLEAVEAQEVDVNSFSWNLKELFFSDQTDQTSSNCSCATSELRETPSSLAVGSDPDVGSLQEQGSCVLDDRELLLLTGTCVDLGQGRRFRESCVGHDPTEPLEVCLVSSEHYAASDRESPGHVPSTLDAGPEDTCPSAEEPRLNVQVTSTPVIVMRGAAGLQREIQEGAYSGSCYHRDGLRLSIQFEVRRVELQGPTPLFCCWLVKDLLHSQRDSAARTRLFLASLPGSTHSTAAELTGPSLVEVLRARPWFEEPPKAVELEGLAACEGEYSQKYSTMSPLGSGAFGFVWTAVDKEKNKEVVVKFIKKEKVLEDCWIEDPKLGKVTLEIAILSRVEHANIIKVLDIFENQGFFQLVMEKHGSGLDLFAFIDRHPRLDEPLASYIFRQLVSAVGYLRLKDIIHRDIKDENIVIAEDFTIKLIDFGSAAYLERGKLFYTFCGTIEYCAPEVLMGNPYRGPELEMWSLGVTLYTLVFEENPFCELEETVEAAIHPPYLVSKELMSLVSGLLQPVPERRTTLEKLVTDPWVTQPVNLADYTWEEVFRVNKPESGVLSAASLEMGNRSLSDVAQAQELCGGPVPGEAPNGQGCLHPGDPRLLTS
Sequence of NEK9 (human) (Q8TD19 whole entry, looked up): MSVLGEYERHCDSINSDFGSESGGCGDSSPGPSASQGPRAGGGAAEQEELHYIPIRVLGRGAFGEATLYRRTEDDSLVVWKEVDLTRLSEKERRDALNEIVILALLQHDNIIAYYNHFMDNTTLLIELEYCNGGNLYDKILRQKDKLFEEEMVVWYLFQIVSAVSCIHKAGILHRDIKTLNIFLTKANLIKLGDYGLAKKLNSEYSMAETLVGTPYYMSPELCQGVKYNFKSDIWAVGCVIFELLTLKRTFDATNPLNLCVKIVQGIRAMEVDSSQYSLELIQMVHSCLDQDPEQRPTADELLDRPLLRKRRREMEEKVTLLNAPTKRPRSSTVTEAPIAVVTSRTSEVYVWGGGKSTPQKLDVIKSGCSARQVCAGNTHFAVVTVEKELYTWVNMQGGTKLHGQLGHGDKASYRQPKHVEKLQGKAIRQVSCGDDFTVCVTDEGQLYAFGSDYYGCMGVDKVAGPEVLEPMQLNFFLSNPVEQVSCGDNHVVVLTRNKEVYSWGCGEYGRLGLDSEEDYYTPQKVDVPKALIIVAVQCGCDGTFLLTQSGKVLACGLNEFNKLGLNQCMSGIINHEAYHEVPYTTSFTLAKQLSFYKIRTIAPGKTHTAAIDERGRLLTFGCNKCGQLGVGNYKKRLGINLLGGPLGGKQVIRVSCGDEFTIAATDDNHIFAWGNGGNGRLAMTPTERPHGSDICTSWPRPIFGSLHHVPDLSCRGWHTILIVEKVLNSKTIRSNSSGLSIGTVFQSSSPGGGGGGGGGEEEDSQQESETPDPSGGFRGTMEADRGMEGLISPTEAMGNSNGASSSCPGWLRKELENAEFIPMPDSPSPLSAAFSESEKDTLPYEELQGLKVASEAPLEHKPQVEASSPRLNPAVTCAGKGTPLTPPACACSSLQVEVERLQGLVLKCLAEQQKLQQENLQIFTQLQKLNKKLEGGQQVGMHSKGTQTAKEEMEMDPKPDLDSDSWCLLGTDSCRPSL
Sequence of CAMK1D (human) (Q8IU85 whole entry, looked up): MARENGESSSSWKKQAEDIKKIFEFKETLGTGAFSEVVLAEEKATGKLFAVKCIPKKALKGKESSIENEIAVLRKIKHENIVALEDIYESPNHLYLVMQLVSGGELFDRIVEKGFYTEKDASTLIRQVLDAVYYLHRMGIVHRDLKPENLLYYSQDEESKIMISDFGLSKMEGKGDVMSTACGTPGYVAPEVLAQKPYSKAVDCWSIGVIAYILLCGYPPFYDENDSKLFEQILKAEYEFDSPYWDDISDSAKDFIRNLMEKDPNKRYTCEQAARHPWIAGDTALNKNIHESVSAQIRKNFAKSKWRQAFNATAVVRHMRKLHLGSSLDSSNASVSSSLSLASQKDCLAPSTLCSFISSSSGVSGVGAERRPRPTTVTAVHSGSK
Sequence of PRKD2 (human) (Q9BZL6 whole entry, looked up): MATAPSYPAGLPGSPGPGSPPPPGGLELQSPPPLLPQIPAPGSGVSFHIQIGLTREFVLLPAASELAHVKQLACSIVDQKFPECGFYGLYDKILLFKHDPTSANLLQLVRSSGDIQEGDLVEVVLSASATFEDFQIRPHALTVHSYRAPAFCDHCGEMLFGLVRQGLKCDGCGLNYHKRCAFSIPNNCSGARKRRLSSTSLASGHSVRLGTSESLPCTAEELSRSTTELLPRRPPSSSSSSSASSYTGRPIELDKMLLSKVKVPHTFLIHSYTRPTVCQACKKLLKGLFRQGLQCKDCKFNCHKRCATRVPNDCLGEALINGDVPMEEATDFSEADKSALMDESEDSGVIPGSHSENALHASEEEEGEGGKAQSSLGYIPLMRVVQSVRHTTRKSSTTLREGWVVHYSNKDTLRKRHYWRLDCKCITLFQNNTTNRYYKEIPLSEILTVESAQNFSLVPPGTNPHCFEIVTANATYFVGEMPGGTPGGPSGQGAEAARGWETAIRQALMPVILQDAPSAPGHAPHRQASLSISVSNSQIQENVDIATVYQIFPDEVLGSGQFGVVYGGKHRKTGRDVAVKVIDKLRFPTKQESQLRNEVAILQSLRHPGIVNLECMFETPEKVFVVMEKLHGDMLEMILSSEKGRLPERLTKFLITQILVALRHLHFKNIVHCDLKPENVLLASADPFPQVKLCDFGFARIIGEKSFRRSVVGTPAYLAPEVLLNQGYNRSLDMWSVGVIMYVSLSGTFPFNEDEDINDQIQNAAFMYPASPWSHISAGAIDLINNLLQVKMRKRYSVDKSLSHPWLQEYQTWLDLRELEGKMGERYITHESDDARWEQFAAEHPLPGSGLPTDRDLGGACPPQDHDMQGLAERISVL
Sequence of MAPK10 (human) (P53779 whole entry, looked up): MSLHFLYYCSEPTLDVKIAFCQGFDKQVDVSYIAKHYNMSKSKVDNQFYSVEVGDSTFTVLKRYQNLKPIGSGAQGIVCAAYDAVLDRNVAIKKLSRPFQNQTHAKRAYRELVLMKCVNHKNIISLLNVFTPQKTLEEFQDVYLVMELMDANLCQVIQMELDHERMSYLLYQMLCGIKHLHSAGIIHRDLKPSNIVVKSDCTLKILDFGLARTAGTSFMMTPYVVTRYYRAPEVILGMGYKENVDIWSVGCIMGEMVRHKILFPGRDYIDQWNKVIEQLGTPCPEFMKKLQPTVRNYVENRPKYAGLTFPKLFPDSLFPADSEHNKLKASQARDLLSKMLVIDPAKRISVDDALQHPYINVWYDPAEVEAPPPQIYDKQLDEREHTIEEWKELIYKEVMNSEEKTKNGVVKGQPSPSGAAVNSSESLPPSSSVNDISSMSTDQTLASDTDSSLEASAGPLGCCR
Sequence of IRAK1 (human) (P51617 whole entry, looked up): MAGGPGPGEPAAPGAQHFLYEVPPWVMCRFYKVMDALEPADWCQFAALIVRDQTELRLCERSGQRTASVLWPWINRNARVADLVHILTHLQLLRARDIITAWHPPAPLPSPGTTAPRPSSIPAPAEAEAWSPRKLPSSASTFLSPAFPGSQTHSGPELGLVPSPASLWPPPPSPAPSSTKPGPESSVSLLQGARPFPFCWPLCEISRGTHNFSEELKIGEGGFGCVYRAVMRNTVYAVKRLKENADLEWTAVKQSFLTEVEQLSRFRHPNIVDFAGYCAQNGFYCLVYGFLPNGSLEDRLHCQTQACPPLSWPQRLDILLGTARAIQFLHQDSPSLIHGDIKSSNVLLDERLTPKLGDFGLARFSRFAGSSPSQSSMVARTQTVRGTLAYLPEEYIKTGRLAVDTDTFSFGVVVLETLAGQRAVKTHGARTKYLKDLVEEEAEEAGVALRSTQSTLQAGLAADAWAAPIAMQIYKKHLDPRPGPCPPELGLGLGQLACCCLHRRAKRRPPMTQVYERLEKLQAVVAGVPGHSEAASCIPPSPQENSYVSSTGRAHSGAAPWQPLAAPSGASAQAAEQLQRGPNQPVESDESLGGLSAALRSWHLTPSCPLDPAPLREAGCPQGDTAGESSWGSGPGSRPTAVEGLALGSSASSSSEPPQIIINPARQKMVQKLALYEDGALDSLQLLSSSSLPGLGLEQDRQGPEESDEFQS
Sequence of PIM1 (human) (P11309 whole entry, looked up): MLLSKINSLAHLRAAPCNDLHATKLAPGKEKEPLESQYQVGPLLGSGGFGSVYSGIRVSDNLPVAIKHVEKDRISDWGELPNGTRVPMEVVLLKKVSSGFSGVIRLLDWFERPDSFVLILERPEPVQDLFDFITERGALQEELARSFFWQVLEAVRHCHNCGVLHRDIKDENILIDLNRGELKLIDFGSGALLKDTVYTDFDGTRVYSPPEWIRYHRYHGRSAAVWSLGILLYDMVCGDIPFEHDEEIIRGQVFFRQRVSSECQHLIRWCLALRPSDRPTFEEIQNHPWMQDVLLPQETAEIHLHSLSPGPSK

CC[C@H](C)n1cc(C)c2c(C(=O)NCc3c(C)cc(C)[nH]c3=O)cc(-c3ccc(N4CCNCC4)nc3)cc21
residual activity [1]: 107%
residual activity [2]: 80.5%
residual activity [3]: 102%
residual activity [4]: 98.5%
residual activity [5]: 82%
residual activity [6]: 102%
residual activity [7]: 90%
residual activity [8]: 100%
residual activity [9]: 96%
residual activity [10]: 54%
residual activity [11]: 106%
residual activity [12]: 90.5%
residual activity [13]: 99%
residual activity [14]: 88%
residual activity [15]: 95.5%
residual activity [16]: 97%
residual activity [17]: 92%
residual activity [18]: 104%
residual activity [19]: 97.5%
residual activity [20]: 98%
residual activity [21]: 105%
residual activity [22]: 99.5%
residual activity [23]: 91.5%
residual activity [24]: 99%
residual activity [25]: 99.5%
residual activity [26]: 97%
residual activity [27]: 105%
residual activity [28]: 97%
residual activity [29]: 204%
residual activity [30]: 96%
residual activity [31]: 106%
residual activity [32]: 96.5%
residual activity [33]: 90%
residual activity [34]: 105%
residual activity [35]: 91.5%
residual activity [36]: 104%
residual activity [37]: 103%
residual activity [38]: 98%
residual activity [39]: 90.5%
residual activity [40]: 102%
residual activity [41]: 97%
residual activity [42]: 79%
residual activity [43]: 98.5%
residual activity [44]: 96%
